Laboratory results: patent US10689399B2, “Substituted 3,4,5,6,8,10,14,14a-octahydro-2h-2,6-methanopyrido[1′,2′:4,5]pyrazino[2,1-b][1,3]oxazocines and methods for treating viral infections” (Gilead Sciences, Inc., priority 2012, dated 2020)

Tested on: HIV-IIIb
Assay: Antiviral assay in MT4 cells
Type: cell-based
Conditions: Human immunodeficiency virus 1, IIIB, MT4, 120 h, MT4 cells infected with HIV-IIIb, 5 days, CellTiter-Glo; read-out: EC50 nM in MT-4
Method: For the antiviral assay utilizing MT4 cells, 0.4 μL of 189X test concentration of 3-fold serially diluted compound in DMSO was added to 40 μL of cell growth medium (RPMI 1640, 10% FBS, 1% penicilline/Streptomycine, 1% L-Glutamine, 1% HEPES) in each well of 384-well assay plates (10 concentrations) in quidruplicate.
1 mL aliquots of 2×10^6 MT4 cells are pre-infected for 1 and 3 hours respectively at 37° C. with 25 μL (MT4) or of either cell growth medium (mock-infected) or a fresh 1:250 dilution of an HIV-IIIb concentrated ABI stock (0.004 m.o.i. for MT4 cells). Infected and uninfected cells are diluted in cell growth medium and 35 μL of 2000 (for MT4) cells is added to each well of the assay plates.
Assay plates were then incubated in a 37° C. incubator. After 5 days of incubation, 25 μL of 2× concentrated CellTiter-Glo™ Reagent (catalog # G7573, Promega Biosciences, Inc., Madison, Wis.) was added to each well of the assay plate. Cell lysis was carried out by incubating at room temperature for 2-3 minutes, and then chemiluminescence was read using the Envision reader (PerkinElmer).

Row | Structure (SMILES) | EC50
1 | O=C(NC1(c2ccc(F)cc2F)CCCC1)c1cn2c(c(O)c1=O)C(=O)N1C(C2)O[C@H]2CC[C@@H]1C2 (stereo partly drawn) [Compound 33, (2S,5R)—N-(1-(2,4-difluorophenyl)cyclopentyl)-8-hydroxy-7,9-dioxo-2,3,4,5,7,9,13,13a-octahydro-2,5-methanopyrido[1%2′: 4,5]pyrazino[2,1-b][1,3]oxazepine-10-carboxamide] | 43.5 nM
2 | O=C(NCc1cccc(C(F)(F)F)c1F)c1cn2c(c(O)c1=O)C(=O)N1[C@H]3CC[C@H](C3)[C@@H]1C2 [Compound 74, (1R,4S,12aR)—N-(2-fluoro-3-(trifluoromethyl)benzyl)-7-hydroxy-6,8-dioxo-1,2,3,4,6,8,12,12a-octahydro-1,4-methanodipyrido[1,2-a:1′,2′-d]pyrazine-9-carboxamide] | 29.3 nM
3 | O=C(NCc1ccc(Cl)cc1F)c1cn2c(c(O)c1=O)C(=O)N1[C@H]3CC[C@H](C3)[C@@H]1C2 [Compound 92, (1R,4S,12aR)—N-(4-chloro-2-fluorobenzyl)-7-hydroxy-6,8-dioxo-1,2,3,4,6,8,12,12a-octahydro-1,4-methanodipyrido[1,2-a:1′,2′-d]pyrazine-9-carboxamide] | 18.6 nM
4 | O=C(NCc1ccc(F)cc1F)c1cn2c(c(O)c1=O)C(=O)N1[C@H]3CC[C@H](CC3)[C@H]1C2 [Compound 100, (1R,4R,12aS)—N-(2,4-difluorobenzyl)-7-hydroxy-6,8-dioxo-1,2,3,4,6,8,12,12a-octahydro-1,4-ethanodipyrido[1,2-a:1′,2′-d]pyrazine-9-carboxamide] | 2.2 nM
5 | O=C(NCc1c(F)cc(F)cc1F)c1cn2c(c(O)c1=O)C(=O)N1[C@H]3CC(F)C(C3)[C@@H]1C2 (stereo in doubt) [Compound 56, (1R,2S,4R,12aR)-2-fluoro-7-hydroxy-6,8-dioxo-N-(2,4,6-trifluorobenzyl)-1,2,3,4,6,8,12,12a-octahydro-1,4-methanodipyrido[1,2-a:1′,2′-d]pyrazine-9-carboxamide] | 3.1 nM
6 | O=C(NCc1c(F)cc(F)cc1F)c1cn2c(c(O)c1=O)C(=O)N1[C@H]3C[C@H](C3)[C@@H]1C2 (single isomer, unassigned) [Compound 97] | 2.1 nM
7 | C[C@H]1C[C@@H]2C[C@H]1N1C(=O)c3c(O)c(=O)c(C(=O)NCc4c(F)cc(F)cc4F)cn3C[C@@H]21 [Compound 99, (1R,3S,4R,12aR)-7-hydroxy-3-methyl-6,8-dioxo-N-(2,4,6-trifluorobenzyl)-1,2,3,4,6,8,12,12a-octahydro-1,4-methanodipyrido[1,2-a:1′,2′-d]pyrazine-9-carboxamide] | 2 nM
8 | O=C(NCc1c(F)cc(F)cc1F)c1cn2c(c(O)c1=O)C(=O)N1[C@H]3CC[C@H](C3)[C@@H]1C2 [Compound 41, (1R,4S,12aR)-7-hydroxy-6,8-dioxo-N-(2,4,6-trifluorobenzyl)-1,2,3,4,6,8,12,12a-octahydro-1,4-methanodipyrido[1,2-a:1′,2′-d]pyrazine-9-carboxamide] | 2.1 nM
9 | O=C(NCc1ccc(F)cc1F)c1cn2c(c(O)c1=O)C(=O)N1C(C2)[N@]2CC[C@H]1C2 (stereo partly drawn) [Compound 6, (1R,4S)—N-(2,4-difluorobenzyl)-7-hydroxy-6,8-dioxo-3,4,6,8,12,12a-hexahydro-2H-1,4-methanopyrido[1′,2′:4,5]pyrazino[1,2-a]pyrimidine-9-carboxamide] | 5.3 nM
10 | C[C@@H]1CCO[C@H]2Cn3cc(C(=O)NC4(c5ccc(F)cc5F)CC4)c(=O)c(O)c3C(=O)N12 [Compound 5, (4R,12aS)—N-(1-(2,4-difluorophenyl)cyclopropyl)-7-hydroxy-4-methyl-6,8-dioxo-3,4,6,8,12,12a-hexahydro-2H-[1,3]oxazino[3,2-d]pyrido[1,2-a]pyrazine-9-carboxamide] | 8.1 nM
11 | O=C(NCc1cc(F)ccc1F)c1cn2c(c(O)c1=O)C(=O)N1[C@H]3CC[C@H](C3)O[C@@H]1C2 [Compound 89, (2R,5S,13aR)—N-(2,5-difluorobenzyl)-8-hydroxy-7,9-dioxo-2,3,4,5,7,9,13,13a-octahydro-2,5-methanopyrido[1′,2′:4,5]pyrazino[2,1-b][1,3]oxazepine-10-carboxamide] | 8.4 nM
12 | O=C(NC1(c2ccc(F)cc2F)CCOCC1)c1cn2c(c(O)c1=O)C(=O)N1C(C2)O[C@H]2CC[C@@H]1C2 (stereo partly drawn) [Compound 35, (2S,5R)—N-(4-(2,4-difluorophenyl)tetrahydro-2H-pyran-4-yl)-8-hydroxy-7,9-dioxo-2,3,4,5,7,9,13,13a-octahydro-2,5-methanopyrido[1′,2′:4,5]pyrazino[2,1-b][1,3]oxazepine-10-carboxamide] | 157 nM
13 | O=C(NCc1ccc(F)cc1F)c1cn2c(c(O)c1=O)C(=O)N1C(C2)O[C@H]2CCC[C@@H]1C2 (stereo partly drawn) [Compound 7, (2S,6R)—N-(2,4-difluorobenzyl)-9-hydroxy-8,10-dioxo-3,4,5,6,8,10,14,14a-octahydro-2H-2,6-methanopyrido[1′,2′:4,5]pyrazino[2,1-b][1,3]oxazocine-11-carboxamide] | 3.5 nM
14 | O=C(NCc1c(F)cc(F)cc1F)c1cn2c(c(O)c1=O)C(=O)N1[C@@H]3C[C@@H]([C@H](F)C3)[C@@H]1C2 [Compound 59, (1R,2R,4R,12aR)-2-fluoro-7-hydroxy-6,8-dioxo-N-(2,4,6-trifluorobenzyl)-1,2,3,4,6,8,12,12a-octahydro-1,4-methanodipyrido[1,2-a:1′,2′-d]pyrazine-9-carboxamide] | 3.1 nM
15 | O=C(NCc1c(F)cc(F)cc1Cl)c1cn2c(c(O)c1=O)C(=O)N1[C@H]3CC[C@H](C3)[C@@H]1C2 [Compound 93, (1R,4S,12aR)—N-(2-chloro-4,6-difluorobenzyl)-7-hydroxy-6,8-dioxo-1,2,3,4,6,8,12,12a-octahydro-1,4-methanodipyrido[1,2-a:1′,2′-d]pyrazine-9-carboxamide] | 2.2 nM
16 | O=C(NCc1ccc(F)cc1F)c1cn2c(c(O)c1=O)C(=O)N1[C@H]3CC[C@H](C3)O[C@@H]1C2 [Compound 2, (2R,5S,13aR)—N-(2,4-difluorobenzyl)-8-hydroxy-7,9-dioxo-2,3,4,5,7,9,13,13a-octahydro-2,5-methanopyrido[1′,2′:4,5]pyrazino[2,1-b][1,3]oxazepine-10-carboxamide] | 2.2 nM
17 | O=C(NCc1ncc(F)cc1F)c1cn2c(c(O)c1=O)C(=O)N1[C@H]3CC[C@H](C3)[C@@H]1C2 [Compound 76, (1R,4S,12aR)—N-((3,5-difluoropyridin-2-yl)methyl)-7-hydroxy-6,8-dioxo-1,2,3,4,6,8,12,12a-octahydro-1,4-methanodipyrido[1,2-a:1′,2′-d]pyrazine-9-carboxamide] | 17.8 nM
18 | O=C(NCc1cc(Cl)c(F)cc1F)c1cn2c(c(O)c1=O)C(=O)N1[C@H]3CC[C@H](C3)[C@@H]1C2 [Compound 80, (1R,4S,12aR)—N-(5-chloro-2,4-difluorobenzyl)-7-hydroxy-6,8-dioxo-1,2,3,4,6,8,12,12a-octahydro-1,4-methanodipyrido[1,2-a:1′,2′-d]pyrazine-9-carboxamide] | 4.6 nM
19 | O=C(NCc1ccc(F)cc1F)c1cn2c(c(O)c1=O)C(=O)N1[C@@H]3CC[C@@H](C3)O[C@H]1C2 (racemic) [Compound 1, N-(2,4-difluorobenzyl)-8-hydroxy-7,9-dioxo-2,3,4,5,7,9,13,13a-octahydro-2,5-methanopyrido[1′,2′:4,5]pyrazino[2,1-b][1,3]oxazepine-10-carboxamide] | 2.6 nM
20 | O=C(NCc1c(F)cccc1F)c1cn2c(c(O)c1=O)C(=O)N1[C@@H]3CC[C@@H](C3)O[C@H]1C2 [Compound 46, (13aS)—N-(2,6-difluorobenzyl)-8-hydroxy-7,9-dioxo-2,3,4,5,7,9,13,13a-octahydro-2,5-methanopyrido[1′,2′:4,5]pyrazino[2,1-b][1,3]oxazepine-10-carboxamide] | 2.6 nM
21 | O=C(NCc1cccc(F)c1F)c1cn2c(c(O)c1=O)C(=O)N1[C@@H]3CC[C@@H](C3)O[C@H]1C2 [Compound 16, (2S,5R,13aS)—N-(2,3-difluorobenzyl)-8-hydroxy-7,9-dioxo-2,3,4,5,7,9,13,13a-octahydro-2,5-methanopyrido[1′,2′:4,5]pyrazino[2,1-b][1,3]oxazepine-10-carboxamide] | 1.5 nM
22 | O=C(NCc1ccc(F)cc1)c1cn2c(c(O)c1=O)C(=O)N1[C@@H]3CC[C@@H](C3)O[C@H]1C2 [Compound 15, (2 S,5R,13aS)—N-(4-fluorobenzyl)-8-hydroxy-7,9-dioxo-2,3,4,5,7,9,13,13a-octahydro-2,5-methanopyrido[1′,2′:4,5]pyrazino[2,1-b][1,3]oxazepine-10-carboxamide] | 2.2 nM

Same assay, conditions: Human immunodeficiency virus 1, IIIB, MT4, 120 h, read-out: EC50 nM in MT-4, MT4 cells infected with HIV-IIIb, 5 days, CellTiter-Glo

Row | Structure (SMILES) | EC50
23 | O=C(NCc1ccc(F)cc1F)c1cn2c(c(O)c1=O)C(=O)N1C(C2)[C@H]2CC[C@@H]1C2 (stereo in doubt) [Compound 48, (1S,4R,12aS)—N-(2,4-difluorobenzyl)-7-hydroxy-6,8-dioxo-1,2,3,4,6,8,12,12a-octahydro-1,4-methanodipyrido[1,2-a:1′,2′-d]pyrazine-9-carboxamide] | 2.7 nM
24 | O=C(NCc1ccc(F)cc1F)c1cn2c(c(O)c1=O)C(=O)N1C(C2)[C@H]2CC[C@@H]1C2 (stereo in doubt) [Compound 38, (1S,4R,12aR)—N-(2,4-difluorobenzyl)-7-hydroxy-6,8-dioxo-1,2,3,4,6,8,12,12a-octahydro-1,4-methanodipyrido[1,2-a:1′,2′-d]pyrazine-9-carboxamide] | 1.7 nM
